Assay results published in patent publication US5869714A, “Salts of omega-3-polyunsaturated fatty acids and pharmaceutical formulations containing them” (Prospa B.V., priority 1994, dated 1999).
Counter-ions that a name gives are not always drawn.

Assays:
[1] = system: arteriolar thrombus disaggregation; experiment: thrombolytic action: arteriolar thrombus disaggregation time after electrical vascular damage in the hamster; type: in vivo, hamster (Mesocricetus auratus); details: oral; for thrombolytic activity (in words): 10 days
Description: Through a different in vivo experimental model also the effect on thrombus formation and disaggregation was evaluated in the hamster, following vascular damage induced by electrical stimulation (thrombolytic action).
(§1) In the course of a typical experiment, male hamsters of the Mesocricetus auratus genus, weighing 95-115 g, were acclimatized for 1 week in the laboratory before starting the study, then semi-chronically treated by oral route, for 10 consecutive days with the products under examination. More precisely, the animals were divided into 4 groups: group I received the vehicle alone, group II received DHA ethyl ester 100 mg/kg (equivalent to DHA 92 mg/kg), group III and IV were given DHA 50 mg/kg in the form of ethanolamine salt (59.3 mg/kg) and choline salt (65.7 mg/kg respectively).One hour following the last dose the animals were anaesthetized with sodium pentobarbitone (90 mg/kg, i.p.), the cheek pouch everted with a cotton wool bud and the upper layer and the underlying a vascular connective tissue removed with ophthalmic scissors to expose the lower vascular layer which was then bathed with saline solution and examined under a Leitz Dialux microscope (magnification×250).
For the evaluation of the thrombolytic activity a micropipette was filled with 1.0M potassium chloride, applied to an arteriole of diameter 40-60μ and connected to a reference electrode placed in the animal's mouth. A negative potential was applied for 5 seconds using a Grass S48 stimulator to produce a current of 20-30 μA. A second micropipette containing 10^-2 M ADP was applied to the site of electrical damage and a negative potential applied, for 3 seconds. After the current was switched off, the time taken for the resultant thrombus to form and to disaggregate (about 40 seconds) was recorded using a stopwatch. The process of ADP stimulation of the arteriole damaged site was repeated several times and the mean was recorded of the values obtained over one hour and compared with that of the control animals.
The percentage change in the persistence of the thrombus adhering to the damaged site in the treated and untreated animals is therefore an index of the thrombolytic activity of the drug (Table 3).

[2] = system: thrombus growth rate induced by ADP in the hamster microvascular system; experiment: in vivo antithrombotic action: growth rate of thrombus induced by ADP in hamster microvascular system; set-up: species or system hamster (Mesocricetus auratus); details: oral; for percentage reduction in ADP-induced thrombus growth rate, of the order of max.: maximum; for antithrombotic activity (in words): 10 days
Source text: Considered however that this action is not fully indicative of the possible therapeutic effects of a drug, we measured the in vivo effect of the new salts in extremely significant tests, by determining for instance, their effect on growth rate of a thrombus induced by a known aggregatory agent (adenosine diphosphate; ADP) in the hamster microvascular system (in vivo antithrombotic action).
as §1
Evaluation of the antithrombotic activity requires measuring the growth rate of a thrombus (white body) in the microcirculation induced by the iontophoresis of ADP from a micropipette through the vessel wall. A micropipette of diameter 12μ was filled with 10^-2 M solution of ADP connected with a silver/silver chloride reference electrode placed in the animal's mouth and applied to a venule of diameter 16-40μ. By applying a negative potential to the micropipette, ADP (2×10^-14moles per second) was injected which caused the formation of a white body (platelet thrombus) gradually growing from the wall of the venule. The growth rate of the thrombus was determined by the time taken for 30%, 50% and 90% of the white body to form, 100% referring to total occlusion of the vessel with stasis. When the current was switched off, the white body rapidly embolised and no new white bodies formed until the current was re-applied. Inhibition of thrombus growth rate was calculated by comparing measurements in treated animals with those obtained in the control group (Table 2).

[3] = system: erythrocyte phospholipids; experiment: DHA content of erythrocyte phospholipids in healthy volunteers after 3 weeks oral treatment; type: in vivo; details: 1 g of DHA daily for 3 weeks
Description: Considering that the phospholipid class of the erythrocyte membrane, along with the degree of unsaturation of the acyl chains, does condition red cell deformability and blood viscosity, it has been conducted a study to ascertain the effect of the salts in question on erythrocyte phospholipid composition, which we describe hereunder in illustration. 8 healthy volunteers were then selected and divided into 4 groups which were treated by oral route for 3 weeks with a daily quantity of DHA 1.0 g in the form of ethyl ester (1.1 g), sodium salt (1.1 g), choline salt (1.3 g) and ethanolamine salt (1.2 g). Before and after treatment samples of venous blood were collected and sodium citrate added, then the erythrocytes were isolated, washed for 3 times with saline solution (0.15M NaCl, pH 7.4) at 0° and again suspended in saline solution. 1-ml samples from the red cell suspensions were treated with 5 ml of methanol for 10 minutes then with 5 ml of chloroform containing 2 mg/100 ml of the antioxidant 2,6-di-tert.butyl-4-methyl-phenol (BHT). The organic solvents originating from 3 extractions were evaporated to dryness and the residue, formed by the erythrocyte phospholipids, was subjected to bidimensional chromatography according to Turner J. D. and Rouser G., Anal. Biochem. (Part 1--Erythrocyte lipids), 38, 423, 1970 to separate the different phospholipid classes: silica gel 60H (90 g, Merck) plus Fluorisil (7.2 g, BDH Chemicals) plates were used; the solvent systems consisted of chloroform:methanol: 25% ammonia:water (90:54:5.5:5.5) and chloroform:methanol:acetone:acetic acid:water (60:20:80:20:10). The various classes were identified against standard phospolipids (Sigma Chemical). A sample of total phospholipids and the various stains isolated were treated with 1.5 ml of boron trifluoride-methanol for 1 h at 65° C. under nitrogen, to prepare the methyl esters of the acids contained in the phospholipids to undergo gas-chromatography. To this end a Hewlet-Packard 5890 gas-chromatograph was used, fitted with a ionisation flame detector and with an HPl column 25 m in length and 0.31 mm in int. diameter; elium was used as the carrier gas, the injection port temperature was 320° C. and the detector temperature 340° C. The chamber temperature was programmed at 170° C. for 1 min., then increased by 4°°C./min up to 250° C. and kept at this temperature for 15 minutes.

[4] = water solubility; type: physicochemical
[5] = 60-70 minutes post-dose, equiv. to DHA 50 mg/kg × 10 days
[6] = 70-80 minutes post-dose, equiv. to DHA 50 mg/kg × 10 days
[7] = 80-90 minutes post-dose, equiv. to DHA 50 mg/kg × 10 days
[8] = 90-100 minutes post-dose, equiv. to DHA 50 mg/kg × 10 days
[9] = 100-110 minutes post-dose, equiv. to DHA 50 mg/kg × 10 days
[10] = 110-120 minutes post-dose, equiv. to DHA 50 mg/kg × 10 days
[11] = maximum, equiv. to DHA 50 mg/kg × 10 days
[12] = 60 minutes post-dose, equiv. to DHA 50 mg/kg × 10 days
[13] = 70 minutes post-dose, equiv. to DHA 50 mg/kg × 10 days
[14] = 80 minutes post-dose, equiv. to DHA 50 mg/kg × 10 days
[15] = 90 minutes post-dose, equiv. to DHA 50 mg/kg × 10 days
[16] = 100 minutes post-dose, equiv. to DHA 50 mg/kg × 10 days
[17] = 110 minutes post-dose, equiv. to DHA 50 mg/kg × 10 days
[18] = 120 minutes post-dose, equiv. to DHA 50 mg/kg × 10 days
[19] = equiv. to DHA 50 mg/kg × 10 days

Row | Structure (SMILES) | Percentage reduction, as compared to the controls, of arteriolar thrombus disaggregation time [1, 5] [%] | Percentage reduction, as compared to the controls, of arteriolar thrombus disaggregation time [1, 6] [%] | Percentage reduction, as compared to the controls, of arteriolar thrombus disaggregation time [1, 7] [%] | Percentage reduction, as compared to the controls, of arteriolar thrombus disaggregation time [1, 8] [%] | Percentage reduction, as compared to the controls, of arteriolar thrombus disaggregation time [1, 9] [%] | Percentage reduction, as compared to the controls, of arteriolar thrombus disaggregation time [1, 10] [%] | reduction in disaggregation time [1, 11] | thrombolytic activity (in words) [1] | Percentage reduction, as compared to the controls, of thrombus growth rate induced by ADP [2, 12] [%] | Percentage reduction, as compared to the controls, of thrombus growth rate induced by ADP [2, 13] [%] | Percentage reduction, as compared to the controls, of thrombus growth rate induced by ADP [2, 14] [%] | Percentage reduction, as compared to the controls, of thrombus growth rate induced by ADP [2, 15] [%] | Percentage reduction, as compared to the controls, of thrombus growth rate induced by ADP [2, 16] [%] | Percentage reduction, as compared to the controls, of thrombus growth rate induced by ADP [2, 17] [%] | Percentage reduction, as compared to the controls, of thrombus growth rate induced by ADP [2, 18] [%] | percentage reduction in ADP-induced thrombus growth rate, of the order of max. [2, 19] | antithrombotic activity (in words) [2] | Percent increase in DHA content of erythrocyte phospholipids as compared to baseline values: Phosphatidylcholine [3] [%] | Percent increase in DHA content of erythrocyte phospholipids as compared to baseline values: Phosphatidylethanolamine [3] [%] | Percent increase in DHA content of erythrocyte phospholipids as compared to baseline values: Total phospholipids [3] [%] | other results
1 | CC/C=C\C/C=C\C/C=C\C/C=C\C/C=C\C/C=C\CCC(=O)O [DHA choline salt] | 31.6 | 32.8 | 35.4 | 37.7 | 28.6 | 29.1 | 37-38% | definitely more active, if given at the same doses | 15.6 | 35.4 | 28.3 | 34.2 | 20.8 | 20.2 | 24.7 | 33-34% | highly active | 146 | 38 | 102 | –
2 | CC/C=C\C/C=C\C/C=C\C/C=C\C/C=C\C/C=C\CCC(=O)O [DHA ethanolamine salt] | 30.3 | 34.2 | 34.5 | 38.1 | 30.4 | 29.8 | 37-38% | definitely more active, if given at the same doses | 16.5 | 29.8 | 32.2 | 33.2 | 26.6 | 25.0 | 22.3 | 33-34% | highly active | 113 | 70 | 103 | water solubility [4]: totally water-soluble
3 | CC/C=C\C/C=C\C/C=C\C/C=C\C/C=C\C/C=C\CCC(=O)OCC [DHA ethyl ester, reference compound] | – | – | – | – | – | – | – | highly active | – | – | – | – | – | – | – | – | moderately active | 77 | 10 | 56 | Percentage reduction, as compared to the controls, of arteriolar thrombus disaggregation time ([1]; 60-70 minutes post-dose, 100 mg/kg × 10 days): 21.4%; Percentage reduction, as compared to the controls, of arteriolar thrombus disaggregation time ([1]; 70-80 minutes post-dose, 100 mg/kg × 10 days): 30.5%; Percentage reduction, as compared to the controls, of arteriolar thrombus disaggregation time ([1]; 80-90 minutes post-dose, 100 mg/kg × 10 days): 36.2%; Percentage reduction, as compared to the controls, of arteriolar thrombus disaggregation time ([1]; 90-100 minutes post-dose, 100 mg/kg × 10 days): 32.9%; Percentage reduction, as compared to the controls, of arteriolar thrombus disaggregation time ([1]; 100-110 minutes post-dose, 100 mg/kg × 10 days): 27.8%; Percentage reduction, as compared to the controls, of arteriolar thrombus disaggregation time ([1]; 110-120 minutes post-dose, 100 mg/kg × 10 days): 25.9%; percentage reduction in arteriolar thrombus disaggregation time ([1]; maximum, 100 mg/kg × 10 days): 36.2%; Percentage reduction, as compared to the controls, of thrombus growth rate induced by ADP ([2]; 60 minutes post-dose, 100 mg/kg × 10 days): 5.5%; Percentage reduction, as compared to the controls, of thrombus growth rate induced by ADP ([2]; 70 minutes post-dose, 100 mg/kg × 10 days): 12.5%; Percentage reduction, as compared to the controls, of thrombus growth rate induced by ADP ([2]; 80 minutes post-dose, 100 mg/kg × 10 days): 26.3%; Percentage reduction, as compared to the controls, of thrombus growth rate induced by ADP ([2]; 90 minutes post-dose, 100 mg/kg × 10 days): 17.4%; Percentage reduction, as compared to the controls, of thrombus growth rate induced by ADP ([2]; 100 minutes post-dose, 100 mg/kg × 10 days): 15.1%; Percentage reduction, as compared to the controls, of thrombus growth rate induced by ADP ([2]; 110 minutes post-dose, 100 mg/kg × 10 days): 8.7%; Percentage reduction, as compared to the controls, of thrombus growth rate induced by ADP ([2]; 120 minutes post-dose, 100 mg/kg × 10 days): 14.9%
